Entries after “also recorded” stand apart in the source; their conditions may differ. Read-outs that look alike come from different tables or passages of the source.

Experiment [1] deals with B16 cells. Briefly: B16 tumor growth in mice with daily subcutaneous S-equol (Example 6). The format is in vivo. Particulars: S-equol 20 or 60 mg/kg per day s.c. vs PBS vehicle; start at tumor mass 50 to 80 mm^3. As to the method: Further work in a preclinical animal model supports the notion of using S-cquol to treat melanoma. In immunocompromised mouse experiments, using B16, a murine tumor cell line know to be useful to study human melanoma metastasis and solid tumor formation, growth of tumors is suppressed with S-equol treatment compared to control. 0.5×10^6 B16 cells are injected into normal BL mice. When the tumor masses reach 50 to 80 mm^3 (about one week after the inoculation), the mice are given daily subcutaneous injections of S-equol (20 or 60 mg/kg per day) or PBS as a vehicle control. Tumor development is followed by caliper measurements along two orthogonal axes: length (L) and width (W) and volume (V) is estimated by the formula V=[L×(W^2)]/2. Tumors harvested from mice are fixed in 10% neutral-buffered formalin, dehydrated, embedded in paraffin, and sectioned at 3 μm thickness. Representative tumor sections from vehicle control and S-equol-treated mice are tested for Ki-67 expression to assess cell proliferation, and for ERβ pY36. Statistical significance in the experiments is assessed by two-tailed Student's t test. In all assays, p<0.05 is considered statistically significant.

For experiment [2], the system named is melanoma. Briefly: Pilot biomarker clinical study of Ki67 in melanoma subjects (Example 7). The format is in vivo, human. Particulars: oral S-equol 50 mg twice daily for 10-21 days; 20 subjects with melanoma. As to the method:
A pilot biomarker clinical study is performed in 20 subjects with documented melanoma to determine the effect of the ERβ agonist S-equol on Ki67 an indicator of tumor cell proliferation. Tumor cell proliferation is measured by immunohistological staining for Ki-67. Ki-67 is encoded by the gene MKI67 gene and is required to maintain individual mitotic chromosomes dispersed in the cytoplasm following nuclear envelope disassembly. Measuring the fraction of Ki-67-positive cells in a tumor is known to be a reliable parameter for assessing cancer patient prognosis. Subjects with TNBC are known to have very high levels of Ki67.
Patients enrolled in the study receive a history, physical, laboratory assessment, radiological imaging, and diagnostic biopsies. Immunohistochemistry (IHC) of Ki67 (proliferation marker), total ERβ, and pY36-ERβ (phosphorylated ERβ), B7H1 (also known as PDL-1) and MIA and S100B are conducted using core needle biopsy tissue samples prior to treatment. Patients are given oral S-equol 50 mg, twice daily for approximately two weeks (10-21 days) prior to the scheduled oncologic surgeries or start of primary systemic therapy. […]
A standard procedure for acquiring core biopsy is utilized for determining melanoma prior to enrollment. […] The tissue samples are sent for staining of total and pY36, ERβ and Ki67, and analyzed. […]

Experiment [3] concerns rat hippocampal neurons. The conditions noted are these: cited from earlier work.
For experiment [4], the system named is cytochrome oxidase (COX). The conditions noted are these: brains from ovariectomized mice; cited from earlier work.
Experiment [5] relates to B16 melanoma tumor cell line. Briefly: B16 melanoma tumor challenge in mice, S-equol and anti-PD-1 antibody alone or combined. The format is in vivo. Particulars: for tumor volume: anti-PD-1 250 μg every 3 days i.p., S-equol 50 mg/kg per day oral gavage. As to the method:
FIG. 4. A schema for combination therapy. Mice were administered one of: (1) vehicle+rat IgG2a; (2)S-equol+rat IgG2a; (3) vehicle+anti-PD-1 antibody; or (4)S-equol+anti-PD-1 antibody. Mice receiving anti-PD-1 antibody were given 250 μg every 3 days, intraperitoneally, and mice receiving S-equol were given 50 mg/kg per day by oral gavage. Treatment started 7 days after tumor challenge with B16 melanoma.
Melanoma cell line B16 was tested to determine the effects of a PD-1 inhibitor, S-equol and a combination of the two therapies on tumor growth. This experimental design includes four arms: (1) controls, (2) αPD-1, (3)S-cquol, and (4) αPD-1+S-equol (FIG. 4) by injecting into mice 5×10^5 cells subcutaneously. Antibodies were administered α-PD-1: 250 μg/mice by i.p. injection every 3 days and S-equol was administered at 50 mg/kg/day by oral gavage. Treatment began 7 day after tumor challenge. Tumor growth trajectories were compared within treated mice using a repeated measures linear mixed model. The primary outcome was the logarithm of the tumor size, and the test statistic is the treatment X time interaction. Tumors were measured about 10 times. The number of recipient mice use used in the studies (n=6 per group) was based on the above study.

In experiment [6] the test system is triple negative breast cancer (TNBC). The conditions noted are these: cited from earlier work.

As for `Oc1ccc([C@H]2COc3cc(O)ccc3C2)cc1` [S-equol], the growth of tumors entry in experiment [1] is reported as “suppressed”. For the same compound, the “Ki67 (tumor cell proliferation, IHC) pre- vs post-treatment” value in experiment [2] was “measurable decrease; also recorded: measurable decline”. Further, the “respiratory and maximal glycolysis fluxes” value in experiment [3] is “increase”. In experiment [4], the COX1 protein levels entry is listed as “increase”. Further, the “cytochrome oxidase (COX) activity” value in experiment [4] is “increase”. Also, the “effect on anticancer immunotherapy” value in experiment [5] (Example 4, FIGS. 6-9, n=6 per group) is “boost anticancer immunotherapy”. The tumor volume entry is “reduce tumor volume compared to control” in experiment [5] (FIG. 6, over 12 days post-challenge); “reduce tumor volume compared to control” in experiment [5] (FIG. 7, over 19 days post-challenge); “reduce tumor volume compared to control” in experiment [5] (FIG. 9A, over 16 days (title) / 12 days post-challenge). Besides, the tumor weight result in experiment [5] (FIG. 8A, mice challenged with B16 melanoma) is on record as “reduce tumor weight compared to control”.
For the compound pembrolizumab, the response rate in experiment [6] (Phase 1 study, 27 women with heavily pretreated, chemotherapy resistant, metastatic TNBC that expressed PD-L1) is reported as 18.4%.
For the compound avelumab, the response rate in experiment [6] (168 TNBC tumors unselected for PD-L1 expression) is 8.6%.
On to atezolizumab, for which the response rate in experiment [6] (21 evaluable, PD-L1 expressing TNBC tumors) is given as 19%.
